Tests used:
[1] = system: Abutilon; experiment: Post-emergence test; assay type: in vivo; conditions: greenhouse, 1000 g of ai./ha, scored after three weeks
Protocol: (§1) Post-emergence Test Solvent: 5 parts by weight of acetone Emulsifier: 1 part by weight of alkylaryl polyglycol ether To produce a suitable preparation of active compound, 1 part by weight of active compound is mixed with the stated amount of solvent, the stated amount of emulsifier is added and the concentrate is diluted with water to the desired concentration. Test plants which have a height of 5-15 cm are sprayed with the preparation of active compound such that the particular amounts of active compounds desired are applied per unit area. The concentration of the spray liquor is chosen so that the particular amounts of active compound desired are applied in 1000 l of water/ha. After three weeks, the degree of damage to the plants is scored visually in % damage in comparison to the untreated control. The Figures Denote: 0%=no effect (like untreated control) 100%=total destruction

[2] = system: Amaranthus; experiment: Post-emergence test; assay type: in vivo; conditions: greenhouse, scored after three weeks; for % damage, Amaranthus / pest or weed control at 1000 g/ha: 1000 g of ai./ha
Protocol: as §1

[3] = system: Avena fatua; experiment: Post-emergence test; assay type: in vivo; conditions: greenhouse, 1000 g of ai./ha, scored after three weeks
Protocol: as §1

[4] = system: Galium; experiment: Post-emergence test; assay type: in vivo; conditions: greenhouse, scored after three weeks
Protocol: as §1

[5] = system: Setaria; experiment: Post-emergence test; assay type: in vivo; conditions: greenhouse, scored after three weeks; for % damage, Setaria / pest or weed control at 1000 g/ha: 1000 g of ai./ha
Protocol: as §1

[6] = system: Sinapis; experiment: Post-emergence test; assay type: in vivo; conditions: greenhouse, 1000 g of ai./ha, scored after three weeks
Protocol: as §1

[7] = system: Xanthium; experiment: Post-emergence test; assay type: in vivo; conditions: greenhouse, 1000 g of ai./ha, scored after three weeks
Protocol: as §1

[8] = system: Alopecurus; experiment: Post-emergence test; assay type: in vivo; conditions: greenhouse, 1000 g of ai./ha, scored after three weeks
Protocol: as §1

[9] = system: Abutilon; experiment: Pre-emergence test; assay type: in vivo; conditions: greenhouse, 1000 g of ai./ha, scored after three weeks
Protocol: (§2) Pre-emergence Test Solvent: 5 parts by weight of acetone Emulsifier: 1 part by weight of alkylaryl polyglycol ether To produce a suitable preparation of active compound, 1 part by weight of active compound is mixed with the stated amount of solvent, the stated amount of emulsifier is added and the concentrate is diluted with water to the desired concentration. Seeds of the test plants are sown in normal soil. After about 24 hours, the soil is watered with the preparation of active compound. The amount of water per unit area is advantageously kept constant. The concentration of active compound in the preparation is immaterial, only the application rate of active compound per unit area matters. After three weeks, the degree of damage to the plants is scored visually in % damage in comparison to the development of the untreated control. The figures denote: 0%=no effect (like untreated control) 100%=total destruction

[10] = system: Amaranthus; experiment: Pre-emergence test; assay type: in vivo; conditions: greenhouse, 1000 g of ai./ha, scored after three weeks
Protocol: as §2

[11] = system: Maize; experiment: Pre-emergence test; assay type: in vivo; conditions: greenhouse, 1000 g of ai./ha, scored after three weeks
Protocol: as §2

[12] = system: Sinapis; experiment: Pre-emergence test; assay type: in vivo; conditions: greenhouse, 1000 g of ai./ha, scored after three weeks
Protocol: as §2

[13] = system: Cotton; experiment: Pre-emergence test; assay type: in vivo; conditions: greenhouse, 500 g of ai./ha, scored after three weeks
Protocol: as §2

[14] = system: Echinochloa; experiment: Pre-emergence test; assay type: in vivo; conditions: greenhouse, 500 g of ai./ha, scored after three weeks
Protocol: as §2

[15] = system: Polygonum; experiment: Pre-emergence test; assay type: in vivo; conditions: greenhouse, 500 g of ai./ha, scored after three weeks
Protocol: as §2

[16] = system: Setaria; experiment: Pre-emergence test; assay type: in vivo; conditions: greenhouse, 500 g of ai./ha, scored after three weeks
Protocol: as §2

[17] = system: Solanum; experiment: Pre-emergence test; assay type: in vivo; conditions: greenhouse, 500 g of ai./ha, scored after three weeks
Protocol: as §2

[18] = system: Veronica; experiment: Pre-emergence test; assay type: in vivo; conditions: greenhouse, 500 g of ai./ha, scored after three weeks
Protocol: as §2

[19] = system: Wheat; experiment: Pre-emergence test; assay type: in vivo; conditions: greenhouse, 500 g of ai./ha, scored after three weeks
Protocol: as §2

[20] = system: weeds; experiment: Pre-emergence test (summary in text); assay type: in vivo; conditions: result in words
Protocol: (§3) Solvent: 5 parts by weight of acetone
(§4) Emulsifier: 1 part by weight of alkylaryl polyglycol ether
(§5) To produce a suitable preparation of active compound, 1 part by weight of active compound is mixed with the stated amount of solvent, the stated amount of emulsifier is added and the concentrate is diluted with water to the desired concentration.
Seeds of the test plants are sown in normal soil. After about 24 hours, the soil is watered with the preparation of active compound. The amount of water per unit area is advantageously kept constant. The concentration of active compound in the preparation is immaterial, only the application rate of active compound per unit area matters.
After three weeks, the degree of damage to the plants is scored visually in % damage in comparison to the development of the untreated control.
(§6) 0%=no effect (like untreated control)

[21] = system: weeds; experiment: Post-emergence test (summary in text); assay type: in vivo; conditions: result in words
Protocol: as §3, §4, §5
Test plants which have a height of 5-15 cm are sprayed with the preparation of active compound such that the particular amounts of active compounds desired are applied per unit area. The concentration of the spray liquor is chosen so that the particular amounts of active compound desired are applied in 1000 l of water/ha.
After three weeks, the degree of damage to the plants is scored visually in % damage in comparison to the untreated control.
as §6

[22] = system: Maize; experiment: Post-emergence test; assay type: in vivo; conditions: greenhouse, 1000 g of ai./ha, scored after three weeks
Protocol: as §1

[23] = Amaranthus, 504 h, read-out: % damage, Amaranthus
[24] = Setaria, 504 h, read-out: % damage, Setaria

Row | SMILES | % damage, Abutilon [1] | % damage, Avena fatua [3] | % damage, Galium ([4]; 1000 g of ai./ha) | % damage, Sinapis [6] | % damage, Xanthium [7] | pest or weed control at 1000 g/ha [2, 23] | pest or weed control at 1000 g/ha [5, 24] | further results
1 | CC(Nc1nc(N)nc(C(C)(C)F)n1)c1ccc(Cl)cc1 (centres unmarked) [drawing 112] | 100% | 100% | 100% | 100% | 100% | – | – | % damage, Amaranthus [2]: 100%; % damage, Setaria [5]: 100%
2 | COc1ccc(C(C)Nc2nc(NC(C)=O)nc(C(F)(F)F)n2)cc1 (centres unmarked) [drawing 149] | 100% | – | 100% | – | 100% | 100% | 100% | % damage, Alopecurus [8]: 100%
3 | CC(Nc1nc(N)nc(C(F)(F)F)n1)c1ccc(Cl)cc1 (centres unmarked) [drawing 111] | 100% | 70% | 100% | 100% | 100% | – | – | % damage, Amaranthus [2]: 100%; % damage, Setaria [5]: 100%
4 | CC(=O)Nc1nc(NC(C)c2ccc(Cl)cc2)nc(C(Cl)Cl)n1 (centres unmarked) [drawing 148] | – | 70% | 70% | – | – | 100% | 100% | –
5 | COSc1ccc(C(C)Nc2nc(NC(C)=O)nc(C(Cl)Cl)n2)cc1 (centres unmarked) | – | – | – | – | – | – | – | pest or weed control at 500 g/ha ([2]; Amaranthus, 504 h, 500 g of ai./ha, read-out: % damage, Amaranthus): 100%; % damage, Galium ([4]; 500 g of ai./ha): 100%; pest or weed control at 500 g/ha ([5]; Setaria, 504 h, 500 g of ai./ha, read-out: % damage, Setaria): 90%
6 | CC(F)c1nc(N)nc(NC(C)c2ccc(Cl)cc2)n1 (centres unmarked) [drawing 94] | – | – | – | – | – | – | – | % damage, Abutilon [9]: 100%; % damage, Amaranthus [10]: 100%; % damage, Maize [11]: 0%; % damage, Sinapis [12]: 100%
7 | CC(Nc1nc(N)nc(Cl)n1)c1ccc(Cl)cc1 (centres unmarked) [drawing 108] | 100% | 80% | – | 100% | – | – | – | % damage, Alopecurus [8]: 70%; % damage, Amaranthus [2]: 100%; % damage, Setaria [5]: 100%
8 | CC(Cl)c1nc(N)nc(NC(C)c2ccc(Cl)cc2)n1 (centres unmarked) [drawing 100] | – | – | – | – | – | – | – | % damage, Cotton [13]: 0%; % damage, Echinochloa [14]: 100%; % damage, Polygonum [15]: 100%; % damage, Setaria [16]: 95%; % damage, Solanum [17]: 100%; % damage, Veronica [18]: 100%; % damage, Wheat [19]: 0%
9 | CC(=O)Nc1nc(NC(C)c2ccc(Cl)cc2)nc(C(C)(Cl)Cl)n1 (centres unmarked) [Example 160] | – | – | – | – | – | – | – | activity against weeds [20]: strong activity; melting point: 118 °C
10 | CC(Nc1nc(N)nc(C(F)(F)F)n1)c1ccc(Cl)cc1 (centres unmarked) [drawing 109] | 100% | 100% | – | 100% | – | 100% | 100% | % damage, Alopecurus [8]: 100%
11 | CC(F)c1nc(N)nc(NC(C)c2ccc(Cl)cc2)n1 (centres unmarked) [Example 13] | – | – | – | – | – | – | – | activity against weeds [20]: strong activity; activity against weeds [21]: strong activity
12 | CCC(Nc1nc(NC(C)=O)nc(C(F)(F)F)n1)c1ccc(Cl)cc1 (centres unmarked) [drawing 144] | 100% | – | – | – | 90% | 100% | 100% | % damage, Maize [22]: 10%

Source: patent US6440903B1, “Substituted 2,4-diamino-1,3,5-triazines as herbicides” (Bayer Aktiengesellschaft, priority 1996, dated 2002)
